Measured values reported in ChEMBL document CHEMBL4346757, “Synthesis and biological evaluation of 7-methoxy-1-(3,4,5-trimethoxyphenyl)-4,5-dihydro-2H-benzo[e]indazoles as new colchicine site inhibitors” (Bioorg Med Chem Lett, 2019).

Assays:
LOX IMVI = assay: Growth inhibition of human LOXIMVI cells assessed as cell growth at 0.1 uM after 48 hrs by SRB assay relative to control; assay type: functional; conditions: read-out: Activity
OVCAR-4 [1] = assay: Cytotoxicity against human OVCAR4 cells assessed as growth inhibition after 48 hrs by SRB assay; assay type: functional; conditions: OVCAR-4, 48 h
HOP-62 [2] = assay: Growth inhibition of human HOP62 cells assessed as cell growth at 0.01 uM after 48 hrs by SRB assay relative to control; assay type: functional; conditions: HOP-62, 48 h, read-out: Activity
UACC-257 = assay: Growth inhibition of human UACC257 cells assessed as cell growth at 0.1 uM after 48 hrs by SRB assay relative to control; assay type: functional; conditions: UACC-257, 48 h, read-out: Activity
SK-MEL-2 [3] = assay: Growth inhibition of human SK-MEL-2 cells assessed as cell growth at 0.1 uM after 48 hrs by SRB assay relative to control; assay type: functional; conditions: SK-MEL-2, 48 h, read-out: Activity
HOP-92 [4] = assay: Growth inhibition of human HOP92 cells assessed as cell growth at 1 uM after 48 hrs by SRB assay relative to control; assay type: functional; conditions: HOP-92, 48 h, read-out: Activity
Hs-578T = assay: Growth inhibition of human Hs 578T cells assessed as cell growth at 1 uM after 48 hrs by SRB assay relative to control; assay type: functional; conditions: read-out: Activity
SF-539 = assay: Growth inhibition of human SF539 cells assessed as cell growth at 10 uM after 48 hrs by SRB assay relative to control; assay type: functional; conditions: SF-539, 48 h, read-out: Activity
UO-31 = assay: Growth inhibition of human UO31 cells assessed as cell growth at 1 uM after 48 hrs by SRB assay relative to control; assay type: functional; conditions: UO-31, 48 h, read-out: Activity
UACC-62 = assay: Growth inhibition of human UACC62 cells assessed as cell growth at 0.01 uM after 48 hrs by SRB assay relative to control; assay type: functional; conditions: UACC-62, 48 h, read-out: Activity
A549 = assay: Growth inhibition of human A549/ATCC cells assessed as cell growth at 100 uM after 48 hrs by SRB assay relative to control; assay type: functional; conditions: A549, 48 h, read-out: Activity
MDA-MB-435 = assay: Growth inhibition of human MDA-MB-435 cells assessed as cell growth at 0.1 uM after 48 hrs by SRB assay relative to control; assay type: functional; conditions: MDA-MB-435, 48 h, read-out: Activity
OVCAR-4 [5] = assay: Growth inhibition of human OVCAR4 cells assessed as cell growth at 1 uM after 48 hrs by SRB assay relative to control; assay type: functional; conditions: OVCAR-4, 48 h, read-out: Activity
HOP-92 [6] = assay: Growth inhibition of human HOP92 cells assessed as cell growth at 0.01 uM after 48 hrs by SRB assay relative to control; assay type: functional; conditions: HOP-92, 48 h, read-out: Activity
NCI-H23 = assay: Growth inhibition of human NCI-H23 cells assessed as cell growth at 0.01 uM after 48 hrs by SRB assay relative to control; assay type: functional; conditions: NCI-H23, 48 h, read-out: Activity
HCT-116 [7] = assay: Growth inhibition of human HCT116 cells assessed as cell growth at 100 uM after 48 hrs by SRB assay relative to control; assay type: functional; conditions: HCT-116, 48 h, read-out: Activity
T47D = assay: Growth inhibition of human T47D cells assessed as cell growth at 0.1 uM after 48 hrs by SRB assay relative to control; assay type: functional; conditions: read-out: Activity
HOP-62 [8] = assay: Cytotoxicity against human HOP62 cells assessed as growth inhibition after 48 hrs by SRB assay; assay type: functional; conditions: HOP-62, 48 h
SNB-75 = assay: Growth inhibition of human SNB75 cells assessed as cell growth at 1 uM after 48 hrs by SRB assay relative to control; assay type: functional; conditions: SNB-75, 48 h, read-out: Activity
COLO 205 = assay: Antiproliferative activity against human COLO205 cells assessed as reduction in cell viability by MTT assay; assay type: functional, cell-based
OVCAR-5 = assay: Cytotoxicity against human OVCAR5 cells assessed as growth inhibition after 48 hrs by SRB assay; assay type: functional; conditions: OVCAR-5, 48 h
SNB-19 = assay: Growth inhibition of human SNB19 cells assessed as cell growth at 10 uM after 48 hrs by SRB assay relative to control; assay type: functional; conditions: SNB-19, 48 h, read-out: Activity
HOP-92 [9] = assay: Growth inhibition of human HOP92 cells assessed as cell growth at 10 uM after 48 hrs by SRB assay relative to control; assay type: functional; conditions: HOP-92, 48 h, read-out: Activity
SK-OV-3 = assay: Growth inhibition of human SKOV3 cells assessed as cell growth at 10 uM after 48 hrs by SRB assay relative to control; assay type: functional; conditions: SK-OV-3, 48 h, read-out: Activity
HCT-116 [10] = assay: Growth inhibition of human HCT116 cells assessed as cell growth at 10 uM after 48 hrs by SRB assay relative to control; assay type: functional; conditions: HCT-116, 48 h, read-out: Activity
OVCAR-3 = assay: Growth inhibition of human OVCAR3 cells assessed as cell growth at 10 uM after 48 hrs by SRB assay relative to control; assay type: functional; conditions: OVCAR-3, 48 h, read-out: Activity
SF-295 = assay: Growth inhibition of human SF295 cells assessed as cell growth at 0.1 uM after 48 hrs by SRB assay relative to control; assay type: functional; conditions: SF-295, 48 h, read-out: Activity
SK-MEL-2 [11] = assay: Growth inhibition of human SK-MEL-2 cells assessed as cell growth at 1 uM after 48 hrs by SRB assay relative to control; assay type: functional; conditions: SK-MEL-2, 48 h, read-out: Activity
HOP-92 [12] = assay: Growth inhibition of human HOP92 cells assessed as cell growth at 0.1 uM after 48 hrs by SRB assay relative to control; assay type: functional; conditions: HOP-92, 48 h, read-out: Activity
HOP-62 [13] = assay: Growth inhibition of human HOP62 cells assessed as cell growth at 10 uM after 48 hrs by SRB assay relative to control; assay type: functional; conditions: HOP-62, 48 h, read-out: Activity
NCI-H322M = assay: Growth inhibition of human NCI-H322M cells assessed as cell growth at 0.1 uM after 48 hrs by SRB assay relative to control; assay type: functional; conditions: read-out: Activity
HCC 2998 = assay: Growth inhibition of human HCC2998 cells assessed as cell growth at 0.01 uM after 48 hrs by SRB assay relative to control; assay type: functional; conditions: HCC 2998, 48 h, read-out: Activity
A498 = assay: Growth inhibition of human A498 cells assessed as cell growth at 0.1 uM after 48 hrs by SRB assay relative to control; assay type: functional; conditions: A498, 48 h, read-out: Activity

COc1ccc2c(c1)CCc1n[nH]c(-c3cc(OC)c(OC)c(OC)c3)c1-2
growth at 0.1 µM (LOX IMVI): 16%
GI50 (OVCAR-4 [1]; read-out: GI50): < 0.01 µM
LC50 (OVCAR-4 [1]; read-out: LC50): > 100 µM
TGI (OVCAR-4 [1]; read-out: TGI): 56.5 µM
GI50 (OVCAR-4 [1]; read-out: pGI50 (converted)): < 0.01 µM
LC50 (OVCAR-4 [1]; read-out: pLC50 (converted)): > 100 µM
TGI (OVCAR-4 [1]; read-out: pTGI (converted)): 56.2 µM
growth at 0.01 µM (HOP-62 [2]): 11%
growth at 0.1 µM (UACC-257): 51%
growth at 0.1 µM (SK-MEL-2 [3]): 40%
growth at 1 µM (HOP-92 [4]): 27%
growth at 1 µM (Hs-578T): 18%
growth at 10 µM (SF-539): -24%
growth at 1 µM (UO-31): 28%
growth at 0.01 µM (UACC-62): 23%
growth at 100 µM (A549): -26%
growth at 0.1 µM (MDA-MB-435): -39%
growth at 1 µM (OVCAR-4 [5]): 40%
growth at 0.01 µM (HOP-92 [6]): 39%
growth at 0.01 µM (NCI-H23): 14%
growth at 100 µM (HCT-116 [7]): -66%
growth at 0.1 µM (T47D): 74%
GI50 (HOP-62 [8]; read-out: GI50): < 0.01 µM
CC50 (HOP-62 [8]; read-out: LC50 (the source's name)): 46.7 µM
TGI (HOP-62 [8]; read-out: TGI): 10.8 µM
GI50 (HOP-62 [8]; read-out: pGI50 (converted)): < 0.01 µM
CC50 (HOP-62 [8]; read-out: pLC50 (the source's name) (converted)): 46.8 µM
TGI (HOP-62 [8]; read-out: pTGI (converted)): 10.7 µM
growth at 1 µM (SNB-75): 39%
IC50 (COLO 205): 0.007 µM
GI50 (OVCAR-5; read-out: GI50): 0.242 µM
LC50 (OVCAR-5; read-out: LC50): > 100 µM
TGI (OVCAR-5; read-out: TGI): 38.8 µM
GI50 (OVCAR-5; read-out: pGI50 (converted)): 0.24 µM
LC50 (OVCAR-5; read-out: pLC50 (converted)): > 100 µM
TGI (OVCAR-5; read-out: pTGI (converted)): 38.9 µM
growth at 10 µM (SNB-19): 24%
growth at 10 µM (HOP-92 [9]): 42%
growth at 10 µM (SK-OV-3): -13%
growth at 10 µM (HCT-116 [10]): -15%
growth at 10 µM (OVCAR-3): 12%
growth at 0.1 µM (SF-295): 5%
growth at 1 µM (SK-MEL-2 [11]): 42%
growth at 0.1 µM (HOP-92 [12]): 30%
growth at 10 µM (HOP-62 [13]): 3%
growth at 0.1 µM (NCI-H322M): 40%
growth at 0.01 µM (HCC 2998): 15%
growth at 0.1 µM (A498): -15%
